Data set [1] deals with reserpine induced hypothermia. Put plainly: Antagonism of reserpine induced hypothermia in mice (antidepressant / antireserpine activity). The format is in vivo. As to conditions: for Relative Potency (antireserpine activity, Amitriptyline = 1): reserpine 5 mg/kg i.p., compounds given intraperitoneally. How it is done: (§1) Anticonvulsant activity has also been discovered in the compounds of this invention. The compounds have been tested in mice for antidepressant, sedative, anticonvulsant and anticholinergic activity. The compounds were administered intraperitoneally and the activities of the compounds were compared with those of Amitriptyline. Antidepressant activity was evaluated by antagonism of reserpine (5 mg/kg, i.p.) induced hypothermia (P. S. J. Spencer in "Antidepressant Drugs", S. Garattini and M. N. G. Duhes, ed., Excerpta Medica Foundation, Amsterdam, pages 194-204 (1967)) and antireserpine activity was expressed as relative potency (Amitriptyline = 1). LD50 was calculated by the Litchfield-Wilcoxon method. CNS depressant activity was defined by the ability of the compounds to cause neurological deficit as measured by a traction test (S. Courvoisier, R. Ducrot, L. Julou; "Psychotropic Drugs" ed. by S. Garattini, V. Ghetti, page 373 (1957)) and spontaneous motor activity. (Spontaneous motor activity was measured by an ANIMEX apparatus.) Anticonvulsant activity was determined by antagonism of electroshock induced tonic extensor [L. S. Goodman, M. Singh Grewal, W. C. Brown and E. A. Swinyard, J. Pharmacol, Exptal. Therap., 108, 168 (1953)]. Central anticholinergic effect was assessed by testing a tremorine induced tremor in mice [G. M. Everett, L. E. Bloucus and J. M. Sheppard, Science 124, 79 (1956)]. Results of these tests are summarized in Tables I and II, in which ED50 is defined as the dose of the test compounds which prevents 50% of each response.

Data set [2] can be described thus: Acute toxicity, LD50 (Litchfield-Wilcoxon method). The format is in vivo. The settings on record: for LD50: mouse, in vivo, ip. How it is done:
as §1

Data set [3] concerns spontaneous motor activity. Put plainly: CNS depressant activity: spontaneous motor activity (ANIMEX apparatus). The format is in vivo, mice. As to conditions: Mus musculus, ip, read-out: Spontaneous Motor Activity Depression ED50. The procedure: as §1, with “Therap., 108, 168 (1953)].” left out, “Results of these tests are summarized in Tables I and II, in which ED50 is defined as the dose of the test compounds which prevents 50% of each response.” left out

In data set [4] the test system is electroshock induced tonic extensor. Kind of data set: Anticonvulsant activity: antagonism of electroshock induced tonic extensor. It counts as in vivo, mice. The settings on record: Mus musculus, ip, read-out: Anticonvulsant Activity ED50. The procedure:
as §1, with “Therap., 108, 168 (1953)].” left out, “Results of these tests are summarized in Tables I and II, in which ED50 is defined as the dose of the test compounds which prevents 50% of each response.” left out

Data set [5] deals with neurological deficit (traction test). Put plainly: CNS depressant activity: muscle relaxant action (traction test). The format is in vivo, mice. The settings on record: for ED50: Mus musculus, ip, read-out: Muscle Relaxant Action ED50. The procedure:
as §1

The subject of a further data set is tremorine induced tremor. Kind of data set: Central anticholinergic effect: tremorine induced tremor in mice. The format is in vivo. As to conditions: for ED50: Mus musculus, ip, read-out: Antitremorine Effect ED50. How it is done: as §1
[6] abbreviates: intraperitoneal, mice, Litchfield-Wilcoxon, read-out: LD50.

Counter-ions that a name gives are not always drawn. Like-named read-outs stand apart in the source and are kept apart here. Some results are limits rather than exact numbers.

`CN(C)CCCOc1ccccc1Oc1ccccc1` [2-(3-dimethylaminopropoxy) diphenyl ether hydrochloride, reference compound]: the “Relative Potency (antireserpine activity, Amitriptyline = 1)” value (“Relative Potency” for short) in data set [1] is given as 0.14.
Consider `CNCCCOc1ccccc1Sc1ccccc1` [2-(3-methylaminopropoxy) diphenyl sulfide hydrochloride], for which the “Relative Potency” value in data set [1] is on record as 0.60. In addition, the median lethal dose (LD50) in data set [2] (setting [6]) was 135 mg/kg.
For the compound `NCCCCOc1ccccc1Sc1ccccc1` [2-(4-aminobutoxy) diphenyl sulfide hydrochloride], the “Relative Potency” value in data set [1] came to 0.36.
On to `CN(C)CCCCOc1ccccc1Sc1ccccc1` [2-(4-dimethylaminobutoxy)-diphenyl sulfide hydrochloride], for which the “Relative Potency” value in data set [1] was found to be 0.70. In addition, the LD50 in data set [2] (setting [6]) worked out at 130 mg/kg.
Take `CNCCCCOc1ccccc1Sc1ccccc1` [2-(4-methylaminobutoxy) diphenyl sulfide hydrochloride]: the “antireserpine activity (in words)” value in data set [1] (i.p., from Tables I and II) is given as “comparable to that of Amitriptyline”. Besides, the “Relative Potency” value in data set [1] was 0.90. Also, the “toxicity (in words)” value in data set [2] (mice, i.p., from Tables I and II) was “low toxicity”. In data set [2], this compound gave an LD50 of 120 mg/kg. In addition, the ED50 was above 60 mg/kg in data set [3] (ANIMEX, mice, i.p., CNS depressant activity); above 60 mg/kg in data set [4] (electroshock, mice, i.p., dose which prevents 50% of response); 50 mg/kg in data set [5] (traction test, mice, i.p., CNS depressant activity); 30 mg/kg with tremorine induced tremor (tremorine induced tremor, mice, i.p., central anticholinergic). The “CNS depressant action (in words)” value in data set [5] (mice, i.p., traction test and spontaneous motor activity) is listed as “weak”. Besides, the “anticholinergic action (in words)” value in the data set on tremorine induced tremor (mice, i.p.) is “weak CNS depressant and anticholinergic action”.
Turning to `c1ccc(Sc2ccccc2OCCCCN2CCOCC2)cc1` [2-(4-morpholinobutoxy) diphenyl sulfide hydrochloride], the “Relative Potency” value in data set [1] is listed as 0.38.
Consider `CN(C)CCCCCOc1ccccc1Sc1ccccc1` [2-(5-dimethylaminopentyloxy) diphenyl sulfide hydrochloride], for which, in data set [1], the “Relative Potency” value was determined as 0.15.
As to `CN(C)CCC=C1c2ccccc2CCc2ccccc21` [Amitriptyline, reference compound], the ED50 in data set [3] was found to be 18 mg/kg; in data set [4], 16 mg/kg; in data set [5], 15 mg/kg; in the data set on tremorine induced tremor, 4 mg/kg.

The record behind these values is patent publication US4060612A, “Pharmaceutically active 2-omega-aminoalkoxydiphenyl sulfides” (Mitsubishi Chemical Industries Ltd., priority 1976, dated 1977).
